# Assay results: ChEMBL document CHEMBL5321200, “Discovery of the GSH responsive "Y-PROTACs" targeting ALK and CDK4/6 as a potential treatment for cancer” (Eur J Med Chem, 2023)
# Calls of active or inactive are those of the source. The calls are words filed in the database; no cut-off is given here.
# Columns and labels:
# NCI-H3122 [1] = assay: Induction of apoptosis in human NCI-H3122 cells assessed as viable cells at 1.25 uM incubated for 48 hrs by Annexin V-FITC/propidium iodide staining based flow cytometric analysis (reference value: 94.19%); format: functional; settings: read-out: Activity
# NCI-H1299 [2] = assay: Antiproliferative activity against human NCI-H1299 cells assessed as inhibition of cell growth incubated for 3 to 5 days by MTT assay; format: functional, cell-based
# NCI-H3122 [3] = assay: Cell cycle arrest in human NCI-H3122 cells assessed as accumulation of cells at S phase at 2.5 uM incubated for 24 hrs by propidium iodide staining based flow cytometric analysis (reference value: 34.86%); format: functional
# NCI-H3122 [4] = assay: Induction of apoptosis in human NCI-H3122 cells assessed as necrotic cells at 1.25 uM incubated for 48 hrs by Annexin V-FITC/propidium iodide staining based flow cytometric analysis (reference value: 3.53%); format: functional
# NCI-H3122 [5] = assay: Cell cycle arrest in human NCI-H3122 cells assessed as accumulation of cells at S phase at 1.25 uM incubated for 24 hrs by propidium iodide staining based flow cytometric analysis (reference value: 34.86%); format: functional
# NCI-H1299 [6] = assay: Antiproliferative activity against human NCI-H1299 cells assessed as inhibition of cell growth pretreated with GSH followed by compound addition and incubated for 3 to 5 days by MTT assay; format: functional, cell-based
# NCI-H3122 [7] = assay: Induction of apoptosis in human NCI-H3122 cells assessed as viable cells at 0.312 uM incubated for 48 hrs by Annexin V-FITC/propidium iodide staining based flow cytometric analysis (reference value: 94.19%); format: functional; settings: read-out: Activity
# NCI-H2228 [8] = assay: Antiproliferative activity against human NCI-H2228 cells assessed as inhibition of cell growth incubated for 3 to 5 days by MTT assay; format: functional, cell-based
# NCI-H3122 [9] = assay: Induction of apoptosis in human NCI-H3122 cells assessed as late apoptotic cells at 1.25 uM incubated for 48 hrs by Annexin V-FITC/propidium iodide staining based flow cytometric analysis (reference value: 1.73%); format: functional
# NCI-H3122 [10] = assay: Induction of apoptosis in human NCI-H3122 cells assessed as necrotic cells at 2.5 uM incubated for 48 hrs by Annexin V-FITC/propidium iodide staining based flow cytometric analysis (reference value: 3.53%); format: functional
# NCI-H3122 [11] = assay: Antiproliferative activity against human NCI-H3122 cells assessed as inhibition of cell growth pretreated with GSH followed by compound addition and incubated for 3 to 5 days by MTT assay; format: functional, cell-based
# NCI-H3122 [12] = assay: Cell cycle arrest in human NCI-H3122 cells assessed as accumulation of cells at G0/G1 phase at 0.625 uM incubated for 24 hrs by propidium iodide staining based flow cytometric analysis (reference value: 45.91%); format: functional
# NCI-H3122 [13] = assay: Induction of apoptosis in human NCI-H3122 cells assessed as viable cells at 2.5 uM incubated for 48 hrs by Annexin V-FITC/propidium iodide staining based flow cytometric analysis (reference value: 94.19%); format: functional; settings: read-out: Activity
# NCI-H3122 [14] = assay: Induction of apoptosis in human NCI-H3122 cells assessed as necrotic cells at 0.625 uM incubated for 48 hrs by Annexin V-FITC/propidium iodide staining based flow cytometric analysis (reference value: 3.53%); format: functional
# NCI-H3122 [15] = assay: Cell cycle arrest in human NCI-H3122 cells assessed as accumulation of cells at G2/M phase at 2.5 uM incubated for 24 hrs by propidium iodide staining based flow cytometric analysis (reference value: 18.55%); format: functional
# NCI-H3122 [16] = assay: Induction of apoptosis in human NCI-H3122 cells assessed as early apoptotic cells at 2.5 uM incubated for 48 hrs by Annexin V-FITC/propidium iodide staining based flow cytometric analysis (reference value: 0.50%); format: functional
# NCI-H3122 [17] = assay: Antiproliferative activity against human NCI-H3122 cells assessed as inhibition of cell growth incubated for 3 to 5 days by MTT assay; format: functional, cell-based
# NCI-H2228 [18] = assay: Antiproliferative activity against human NCI-H2228 cells assessed as inhibition of cell growth pretreated with GSH followed by compound addition and incubated for 3 to 5 days by MTT assay; format: functional, cell-based
# NCI-H3122 [19] = assay: Cell cycle arrest in human NCI-H3122 cells assessed as accumulation of cells at S phase at 0.312 uM incubated for 24 hrs by propidium iodide staining based flow cytometric analysis (reference value: 34.86%); format: functional
# NCI-H3122 [20] = assay: Cell cycle arrest in human NCI-H3122 cells assessed as accumulation of cells at G2/M phase at 1.25 uM incubated for 24 hrs by propidium iodide staining based flow cytometric analysis (reference value: 18.55%); format: functional
# NCI-H3122 [21] = assay: Induction of apoptosis in human NCI-H3122 cells assessed as necrotic cells at 0.312 uM incubated for 48 hrs by Annexin V-FITC/propidium iodide staining based flow cytometric analysis (reference value: 3.53%); format: functional
# NCI-H3122 [22] = assay: Induction of apoptosis in human NCI-H3122 cells assessed as total apoptotic cells at 2.5 uM incubated for 48 hrs by Annexin V-FITC/propidium iodide staining based flow cytometric analysis relative to control; format: functional
# NCI-H3122 [23] = assay: Induction of apoptosis in human NCI-H3122 cells assessed as early apoptotic cells at 0.312 uM incubated for 48 hrs by Annexin V-FITC/propidium iodide staining based flow cytometric analysis (reference value: 0.50%); format: functional
# NCI-H3122 [24] = assay: Induction of apoptosis in human NCI-H3122 cells assessed as viable cells at 0.625 uM incubated for 48 hrs by Annexin V-FITC/propidium iodide staining based flow cytometric analysis (reference value: 94.19%); format: functional; settings: read-out: Activity
# NCI-H3122 [25] = assay: Induction of apoptosis in human NCI-H3122 cells assessed as late apoptotic cells at 0.312 uM incubated for 48 hrs by Annexin V-FITC/propidium iodide staining based flow cytometric analysis (reference value: 1.73%); format: functional
# [26] = target: Protein cereblon/Cyclin-dependent kinase 6 (Homo sapiens) (UniProt Q00534+Q96SW2); assay: PROTAC activity at CRBN/CDK6 in human NCI-H3122 cells assessed as reduction in CDK6 protein level at 1 uM incubated for 24 hrs by Western blot analysis; format: cell-based
# Protein cereblon/Cyclin-dependent kinase 6 (Homo sapiens), sequence (Q00534 whole entry, looked up): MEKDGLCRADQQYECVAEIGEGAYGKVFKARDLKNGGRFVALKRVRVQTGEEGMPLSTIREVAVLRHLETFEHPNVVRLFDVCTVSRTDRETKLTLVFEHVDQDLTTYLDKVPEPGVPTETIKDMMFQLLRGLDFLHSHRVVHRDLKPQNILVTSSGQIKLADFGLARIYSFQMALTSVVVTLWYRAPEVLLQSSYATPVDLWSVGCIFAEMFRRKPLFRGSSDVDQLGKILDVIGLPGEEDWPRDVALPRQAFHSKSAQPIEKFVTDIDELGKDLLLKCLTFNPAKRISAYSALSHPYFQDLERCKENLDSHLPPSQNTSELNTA
# Protein cereblon/Cyclin-dependent kinase 6 (Homo sapiens), sequence (Q96SW2 whole entry, looked up): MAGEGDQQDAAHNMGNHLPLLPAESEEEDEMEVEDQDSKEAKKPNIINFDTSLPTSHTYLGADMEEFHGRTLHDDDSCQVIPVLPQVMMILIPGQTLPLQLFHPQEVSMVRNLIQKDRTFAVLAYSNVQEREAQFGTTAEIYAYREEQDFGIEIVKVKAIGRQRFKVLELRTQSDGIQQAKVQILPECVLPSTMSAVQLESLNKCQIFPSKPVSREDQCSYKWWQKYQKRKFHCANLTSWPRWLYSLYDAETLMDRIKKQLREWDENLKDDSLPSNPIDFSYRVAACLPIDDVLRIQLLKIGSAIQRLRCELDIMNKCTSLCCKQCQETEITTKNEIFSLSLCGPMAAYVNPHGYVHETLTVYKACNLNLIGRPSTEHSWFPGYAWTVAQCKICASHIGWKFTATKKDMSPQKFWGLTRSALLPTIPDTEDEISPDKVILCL
# NCI-H3122 [27] = assay: Cell cycle arrest in human NCI-H3122 cells assessed as accumulation of cells at G0/G1 phase at 0.312 uM incubated for 24 hrs by propidium iodide staining based flow cytometric analysis (reference value: 45.91%); format: functional
# NCI-H3122 [28] = assay: Cell cycle arrest in human NCI-H3122 cells assessed as accumulation of cells at G2/M phase at 0.312 uM incubated for 24 hrs by propidium iodide staining based flow cytometric analysis (reference value: 18.55%); format: functional
# [29] = Cytotoxicity against human L02 cells assessed as inhibition of cell growth pretreated with GSH followed by compound addition and incubated for 3 to 5 days by MTT assay; format: toxicity, cell-based
# [30] = Cytotoxicity against human L02 cells assessed as inhibition of cell growth incubated for 3 to 5 days by MTT assay; format: toxicity, cell-based
# NCI-H3122 [31] = assay: Induction of apoptosis in human NCI-H3122 cells assessed as late apoptotic cells at 0.625 uM incubated for 48 hrs by Annexin V-FITC/propidium iodide staining based flow cytometric analysis (reference value: 1.73%); format: functional
# NCI-H3122 [32] = assay: Induction of apoptosis in human NCI-H3122 cells assessed as early apoptotic cells at 0.625 uM incubated for 48 hrs by Annexin V-FITC/propidium iodide staining based flow cytometric analysis (reference value: 0.50%); format: functional
# NCI-H3122 [33] = assay: Cell cycle arrest in human NCI-H3122 cells assessed as accumulation of cells at G0/G1 phase at 1.25 uM incubated for 24 hrs by propidium iodide staining based flow cytometric analysis (reference value: 45.91%); format: functional
# NCI-H3122 [34] = assay: Cell cycle arrest in human NCI-H3122 cells assessed as accumulation of cells at G0/G1 phase at 2.5 uM incubated for 24 hrs by propidium iodide staining based flow cytometric analysis (reference value: 45.91%); format: functional
# NCI-H3122 [35] = assay: Induction of apoptosis in human NCI-H3122 cells assessed as late apoptotic cells at 2.5 uM incubated for 48 hrs by Annexin V-FITC/propidium iodide staining based flow cytometric analysis (reference value: 1.73%); format: functional
# NCI-H3122 [36] = assay: Cell cycle arrest in human NCI-H3122 cells assessed as accumulation of cells at S phase at 0.625 uM incubated for 24 hrs by propidium iodide staining based flow cytometric analysis (reference value: 34.86%); format: functional
# NCI-H3122 [37] = assay: Cell cycle arrest in human NCI-H3122 cells assessed as accumulation of cells at G2/M phase at 0.625 uM incubated for 24 hrs by propidium iodide staining based flow cytometric analysis (reference value: 18.55%); format: functional
# NCI-H3122 [38] = assay: Induction of apoptosis in human NCI-H3122 cells assessed as early apoptotic cells at 1.25 uM incubated for 48 hrs by Annexin V-FITC/propidium iodide staining based flow cytometric analysis (reference value: 0.50%); format: functional
smiles,measurement,setting,value
Cc1cc(Nc2ncc(Cl)c(Nc3ccccc3S(=O)(=O)C(C)C)n2)c(OC(C)C)cc1C1CCNCC1 [CERITINIB],viability at 1.25 µM,NCI-H3122 [1],87.3%
same,IC50,NCI-H1299 [2],1740 nM
same,Activity,NCI-H3122 [3],14.93%
same,Activity,NCI-H3122 [4],4.45%
same,Activity,NCI-H3122 [5],15.21%
same,IC50,NCI-H1299 [6],1620 nM
same,viability at 0.312 µM,NCI-H3122 [7],91.3%
same,IC50,NCI-H2228 [8],580 nM
same,Activity,NCI-H3122 [9],6.24%
same,Activity,NCI-H3122 [10],1.93%
same,IC50,NCI-H3122 [11],60 nM
same,Activity,NCI-H3122 [12],57.79%
same,viability at 2.5 µM,NCI-H3122 [13],87.4%
same,Activity,NCI-H3122 [14],4.19%
same,Activity,NCI-H3122 [15],24.08%
same,Activity,NCI-H3122 [16],3.86%
same,IC50,NCI-H3122 [17],60 nM
same,IC50,NCI-H2228 [18],590 nM
same,Activity,NCI-H3122 [19],12.62%
same,Activity,NCI-H3122 [20],28.18%
same,Activity,NCI-H3122 [21],4.19%
same,Activity,NCI-H3122 [22],10.8%
same,Activity,NCI-H3122 [23],0.91%
same,viability at 0.625 µM,NCI-H3122 [24],88.1%
same,Activity,NCI-H3122 [25],3.61%
same,Activity,[26],inactive
same,Activity,NCI-H3122 [27],52.82%
same,Activity,NCI-H3122 [28],33.92%
same,IC50,[29],1030 nM
same,IC50,[30],3510 nM
same,Activity,NCI-H3122 [31],5.87%
same,Activity,NCI-H3122 [32],1.88%
same,Activity,NCI-H3122 [33],55.92%
same,Activity,NCI-H3122 [34],60.69%
same,Activity,NCI-H3122 [35],6.94%
same,Activity,NCI-H3122 [36],14.15%
same,Activity,NCI-H3122 [37],27.27%
same,Activity,NCI-H3122 [38],1.99%
